Results published in patent US10160726B2, “Quinolone derivatives as antibacterials” (priority 2014, dated 2018).
Converted amounts (≈) assume the structure as drawn. Where a name gives a salt, the structure may show the parent alone. Read-outs that look alike come from different tables or passages of the source.

How the values were obtained:
[1] = system: P. aeruginosa NB52023-CDK0006 (gyrA T83I, parC S87L); test: microbe, parasite or virus in culture; format: cell-based; details: Pseudomonas aeruginosa, 20 h, read-out: Antibacterial activity (MIC) NB52023-CDK0006
[2] = target: E. coli DNA topoisomerase IV (Topo IV, ParC-E) (Escherichia coli, UniProt P0AFI2); test: Decatenation assay of E. coli Topo IV; format: biochemical; details: decatenation activity of E. coli topoIV (ParC-E); read-out: ParC-E IC50 (Enzyme)
Chain of E. coli DNA topoisomerase IV (Topo IV, ParC-E) (P0AFI2 whole entry): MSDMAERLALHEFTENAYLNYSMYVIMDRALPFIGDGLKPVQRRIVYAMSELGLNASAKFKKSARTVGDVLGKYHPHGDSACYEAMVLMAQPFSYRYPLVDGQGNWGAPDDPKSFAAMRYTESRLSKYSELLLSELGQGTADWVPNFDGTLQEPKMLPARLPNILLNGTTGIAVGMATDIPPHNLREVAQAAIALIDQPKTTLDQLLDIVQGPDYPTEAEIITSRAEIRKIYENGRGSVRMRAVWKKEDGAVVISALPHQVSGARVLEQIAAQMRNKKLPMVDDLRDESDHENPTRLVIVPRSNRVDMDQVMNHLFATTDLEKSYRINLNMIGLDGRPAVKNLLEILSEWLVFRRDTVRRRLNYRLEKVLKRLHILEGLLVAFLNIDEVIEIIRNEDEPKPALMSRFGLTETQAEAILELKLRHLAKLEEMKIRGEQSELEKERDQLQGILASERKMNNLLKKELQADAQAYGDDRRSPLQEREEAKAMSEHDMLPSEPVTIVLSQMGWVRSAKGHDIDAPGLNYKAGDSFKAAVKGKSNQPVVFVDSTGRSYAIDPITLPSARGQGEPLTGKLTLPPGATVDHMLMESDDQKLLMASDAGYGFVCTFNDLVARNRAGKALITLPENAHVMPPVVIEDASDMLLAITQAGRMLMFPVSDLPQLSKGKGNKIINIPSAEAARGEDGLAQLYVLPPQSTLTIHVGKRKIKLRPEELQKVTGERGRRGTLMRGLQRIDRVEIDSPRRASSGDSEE
Chain of E. coli DNA topoisomerase IV (Topo IV, ParC-E) (P20083 whole entry, further chain): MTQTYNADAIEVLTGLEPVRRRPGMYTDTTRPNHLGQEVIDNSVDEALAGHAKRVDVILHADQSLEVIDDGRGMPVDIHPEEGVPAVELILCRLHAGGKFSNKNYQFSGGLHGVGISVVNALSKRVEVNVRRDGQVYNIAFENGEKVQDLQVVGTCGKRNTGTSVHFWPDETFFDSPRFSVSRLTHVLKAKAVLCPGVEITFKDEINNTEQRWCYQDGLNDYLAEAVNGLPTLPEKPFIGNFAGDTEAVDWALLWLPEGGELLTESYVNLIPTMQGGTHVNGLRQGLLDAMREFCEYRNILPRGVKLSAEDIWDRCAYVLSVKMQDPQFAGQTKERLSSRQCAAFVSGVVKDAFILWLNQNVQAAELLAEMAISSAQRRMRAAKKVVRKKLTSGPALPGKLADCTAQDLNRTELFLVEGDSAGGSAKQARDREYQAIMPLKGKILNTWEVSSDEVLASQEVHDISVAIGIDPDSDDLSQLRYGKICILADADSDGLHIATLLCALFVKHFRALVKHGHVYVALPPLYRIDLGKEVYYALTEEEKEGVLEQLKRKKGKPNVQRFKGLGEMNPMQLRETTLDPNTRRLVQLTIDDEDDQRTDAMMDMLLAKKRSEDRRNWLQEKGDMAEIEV
Description: Method 2: Decatenation Assay of E. Coli Topo IV
Enzymatic activity of the E. coli DNA topoisomerase IV (Topo IV) reconstituted from its purified subunits was monitored by the decatenation of kinetoplast DNA into minicircles (kDNA, TopoGEN, TG2013-3). To form the functional Topo IV C2E2 heterotetrameric enzyme, equal molar concentrations of the ParC and ParE subunits were combined at high protein concentration (500 nM) and incubated on ice for 1 hour prior to assay start in reaction buffer without ATP or the kDNA. […] The reaction was carried out at 37° C. for 2 hours and terminated by the addition of 2.5 μl of 10× stop solution (0.9% SDS, 50% glycerol, 0.05% bromophenol blue). […] Gels were stained with ethidium bromide (0.5 μg/ml) for 30 minutes and distained in water for 20 minutes. All gels were analyzed using the BIO-RAD ChemiDoc™ XRS^+ with Image Lab 3.0 software. The 50% inhibitor concentration (IC50) was determined as being the compound concentration at which the presence of the kDNA minicircles in the gel was reduced by 50% from the DMSO drug free control (Microsoft Excel 2010 IDBS XLfit, Graph Pad Prism 6).

[3] = target: E. coli DNA gyrase (GyrA-B) (Escherichia coli, UniProt P0AES4); test: Supercoiling assay of E. coli gyrase; format: biochemical; details: supercoiling activity of E. coli gyrase (GyrA-B); read-out: GyrA-B IC50 (Enzyme)
Chain of E. coli DNA gyrase (GyrA-B) (P0AES4 whole entry): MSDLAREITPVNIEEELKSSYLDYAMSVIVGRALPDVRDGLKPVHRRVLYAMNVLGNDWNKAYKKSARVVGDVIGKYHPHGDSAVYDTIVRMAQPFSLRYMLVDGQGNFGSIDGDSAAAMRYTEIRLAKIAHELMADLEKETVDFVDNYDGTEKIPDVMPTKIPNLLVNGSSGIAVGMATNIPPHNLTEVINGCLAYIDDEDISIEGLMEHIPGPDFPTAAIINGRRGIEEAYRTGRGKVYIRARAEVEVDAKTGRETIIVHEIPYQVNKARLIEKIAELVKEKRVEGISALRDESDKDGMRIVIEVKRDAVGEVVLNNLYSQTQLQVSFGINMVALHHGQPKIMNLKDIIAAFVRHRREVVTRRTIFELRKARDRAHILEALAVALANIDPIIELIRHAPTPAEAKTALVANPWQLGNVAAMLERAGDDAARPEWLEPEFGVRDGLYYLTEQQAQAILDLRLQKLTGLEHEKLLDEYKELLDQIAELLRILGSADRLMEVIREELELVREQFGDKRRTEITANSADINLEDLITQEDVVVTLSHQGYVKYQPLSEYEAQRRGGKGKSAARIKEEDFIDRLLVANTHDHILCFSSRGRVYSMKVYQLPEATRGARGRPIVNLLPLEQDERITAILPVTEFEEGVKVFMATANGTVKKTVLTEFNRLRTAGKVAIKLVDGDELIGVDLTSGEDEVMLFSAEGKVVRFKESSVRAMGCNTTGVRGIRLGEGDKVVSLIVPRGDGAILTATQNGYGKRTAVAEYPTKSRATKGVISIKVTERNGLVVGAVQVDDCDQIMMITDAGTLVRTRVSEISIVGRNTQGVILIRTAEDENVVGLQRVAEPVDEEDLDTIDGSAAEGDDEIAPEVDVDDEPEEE
Description: Method 1: Supercoiling Assay of E. Coli Gyrase
Enzymatic activity of E. coli DNA gyrase reconstituted from its purified subunits was assessed by monitoring the introduction of supercoils into the relaxed plasmid pHOT-1 (TopoGEN, TG2035-3). To form the functional gyrase A2B2 heterotetrameric enzyme, equal molar concentrations of the GyrA and GyrB subunits were combined at high protein concentration (500 nM) and incubated on ice for 1 hour prior to assay start in reaction buffer without ATP or the pHOT-1 plasmid. The reaction mixture (25 μl) contained 10 nM enzyme, 10 ng/μl pHOT-1, 1 mM ATP, 35 mM Tris-HCl pH 7.5, 24 mM KCl, 4 mM MgCl2, 2 mM DTT, 1.8 mM spermidine, 6.5% glycerol, and 100 μg/ml bovine serum albumin. The reaction was carried out at 37° C. for 90 minutes and terminated by the addition of 2.5 μl of 10× stop solution (0.9% SDS, 50% glycerol, 0.05% bromophenol blue). […] Gels were stained with ethidium bromide (0.5 μg/ml) for 30 minutes and destained in water for 20 minutes. All gels were analyzed using the BIO-RAD ChemiDocTm XRS+ with Image Lab 3.0 software. The 50% inhibition concentration (IC50) was determined as being the compound concentration at which the supercoiled band was reduced by 50% from the DMSO drug free control (Microsoft Excel 2010 IDBS XLfit, GraftPad Prism 6).

[4] = system: P. aeruginosa NB52023 (efflux deficient K1542, ΔmexX ΔmexB); test: microbe, parasite or virus in culture; format: cell-based; details: Pseudomonas aeruginosa, 20 h, read-out: Antibacterial activity (MIC) NB52023
[5] = system: P. aeruginosa NB52019 (wild-type PAO1); test: MIC, broth microdilution (CLSI); format: cell-based; details: Pseudomonas aeruginosa, read-out: Antibacterial activity (MIC) NB52019
[6] = system: S. aureus ATCC 29213 (NB01001); test: MIC, broth microdilution (CLSI); format: cell-based; details: Staphylococcus aureus, ATCC29213; S. aureus ATCC 29213; 35° C., 20 hours; read-out: Antibacterial activity (MIC) NB01001
[7] = system: E. coli ATCC 25922 (NB27001); test: MIC, broth microdilution (CLSI); format: cell-based; details: Escherichia coli, ATCC25922; E. coli ATCC 25922; 35° C., 20 hours; read-out: Antibacterial activity (MIC) NB27001
[8] = system: E. coli NB27177 (efflux deficient CGSC 11430, ΔtolC732::kan); test: microbe, parasite or virus in culture; format: cell-based; details: Escherichia coli, 20 h, read-out: Antibacterial activity (MIC) NB27177
[9] = system: S. aureus NB01006-AVR005 (gyrA S84L, grlA S80F, grlB E471K); test: microbe, parasite or virus in culture; format: cell-based; details: Staphylococcus aureus, 20 h, read-out: Antibacterial activity (MIC) NB01006-AVR005
[10] = P. aeruginosa wild-type PAO1, 35° C., 20 hours

Row | Structure (SMILES) | MIC [1] [µg/mL] | IC50 [2] [µM] | IC50 [3] [µM] | MIC [4] [µg/mL] | MIC ([5]; PAO1, 20 h) [µg/mL] | MIC [6] [µg/mL] | MIC [7] [µg/mL] | MIC [8] [µg/mL] | MIC [9] [µg/mL] | MIC [5, 10] [µg/mL]
1 | Cc1c(N2CC[C@@H]([C@H](C)N)C2)ccc2c(OCC3CCOCC3)cc(=O)n(C3CC3)c12 [Example 73, 7-((R)-3-((S)-1-aminoethyl)pyrrolidin-1-yl)-1-cyclopropyl-8-methyl-4-((tetrahydro-2H-pyran-4-yl)methoxy)quinolin-2(1H)-one TFA salt] | > 32 | 4.97 | 3.01 | > 32 | > 32 | 1 | 32 | 2 | 4 | –
2 | Cc1c(N2CC[C@@H]([C@H](C)N)C2)c(F)cc2c(-c3n[nH]c(=O)o3)cc(=O)n(C3CC3)c12 [Example 42, 5-(7-((R)-3-((S)-1-aminoethyl)pyrrolidin-1-yl)-1-cyclopropyl-6-fluoro-8-methyl-2-oxo-1,2-dihydroquinolin-4-yl)-1,3,4-oxadiazol-2(3H)-one] | 32 (≈ 77.4 µM) | 1.86 | 0.83 | 8 (≈ 19.3 µM) | > 32 | 0.5 (≈ 1.21 µM) | 8 (≈ 19.3 µM) | 0.25 (≈ 0.605 µM) | 0.5 (≈ 1.21 µM) | –
3 | Cc1c(N2CC[C@@H]([C@H](C)N)C2)c(F)cc2c(-c3nnn[nH]3)cc(=O)n(C3CC3)c12 [Example 39, 7-((R)-3-((S)-1-aminoethyl)pyrrolidin-1-yl)-1-cyclopropyl-6-fluoro-8-methyl-4-(1H-tetrazol-5-yl)quinolin-2(1H)-one] | > 32 | – | 9.8 | > 32 | 32 (≈ 80.5 µM) | 32 (≈ 80.5 µM) | 32 (≈ 80.5 µM) | 32 (≈ 80.5 µM) | > 32 | –
4 | Cc1c(N2CC[C@H](N)C2)c(F)cc2c(C#N)cc(=O)n(C3CC3)c12 [Example 30, (S)-7-(3-aminopyrrolidin-1-yl)-1-cyclopropyl-6-fluoro-8-methyl-2-oxo-1,2-dihydroquinoline-4-carbonitrile] | 4 (≈ 12.3 µM) | 14.6 | 0.98 | 1 (≈ 3.06 µM) | 8 (≈ 24.5 µM) | 0.5 (≈ 1.53 µM) | 1 (≈ 3.06 µM) | < 0.03 | 0.5 (≈ 1.53 µM) | –
5 | Cc1c(N2CCC(C3(N)CC3)C2)c(F)cc2ccc(=O)n(C3CC3)c12 (stereo not drawn) [Example 9.2, 7-(3-(1-Aminocyclopropyl)pyrrolidin-1-yl)-1-cyclopropyl-6-fluoro-8-methylquinolin-2(1H)-one] | 32 (≈ 93.7 µM) | – | 1.19 | 16 (≈ 46.9 µM) | > 32 | 0.125 (≈ 0.366 µM) | 4 (≈ 11.7 µM) | 0.06 (≈ 0.176 µM) | 0.125 (≈ 0.366 µM) | –
6 | Cc1c(N2CC[C@@H]([C@H](C)N)C2)c(F)cc2c(OCc3n[nH]c(=O)o3)cc(=O)n(C3CC3)c12 [Example 64, 5-(((7-((R)-3-((S)-1-aminoethyl)pyrrolidin-1-yl)-1-cyclopropyl-6-fluoro-8-methyl-2-oxo-1,2-dihydroquinolin-4-yl)oxy)methyl)-1,3,4-oxadiazol-2(3H)-one] | > 32 | – | 3.2 | > 32 | > 32 | 8 (≈ 18 µM) | 32 (≈ 72.2 µM) | 4 (≈ 9.02 µM) | 4 (≈ 9.02 µM) | –
7 | Cc1c(-c2ccc(N)nc2)c(F)cc2cc(O)c(=O)n(C3CC3)c12 [Example 11.2, 7-(6-aminopyridin-3-yl)-1-cyclopropyl-6-fluoro-3-hydroxy-8-methylquinolin-2(1H)-one] | > 32 | – | 8.07 | 16 (≈ 49.2 µM) | > 32 | 1 (≈ 3.07 µM) | 8 (≈ 24.6 µM) | 0.125 (≈ 0.384 µM) | 2 (≈ 6.15 µM) | –
8 | Cc1c(N2CC[C@@H]([C@H](C)N)C2)c(F)cc2c(C(=O)O)cc(=O)n(C3CC3)c12 [Example 33, 7-((R)-3-((S)-1-aminoethyl)pyrrolidin-1-yl)-1-cyclopropyl-6-fluoro-8-methyl-2-oxo-1,2-dihydroquinoline-4-carboxylic acid] | > 32 | – | 16.3 | > 32 | 32 (≈ 85.7 µM) | 32 (≈ 85.7 µM) | 32 (≈ 85.7 µM) | 16 (≈ 42.8 µM) | > 32 | –
9 | COc1c(N2CC[C@@H]([C@H](C)N)C2)c(F)cc2cc(C(=O)O)c(=O)n(C3CC3)c12 [Example 12, 7-((R)-3-((S)-1-aminoethyl)pyrrolidin-1-yl)-1-cyclopropyl-6-fluoro-8-methoxy-2-oxo-1,2-dihydroquinoline-3-carboxylic acid hydrochloride] | – | – | 4.64 | – | – | – | – | – | – | –
10 | Cc1c(N2CC[C@@H]([C@H](C)N)C2)c(F)cc2cc(C(=O)O)c(=O)n(C3CC3)c12.Cl [Example 1.1, 7-((R)-3-((S)-1-aminoethyl)pyrrolidin-1-yl)-1-cyclopropyl-6-fluoro-8-methyl-2-oxo-1,2-dihydroquinoline-3-carboxylic acid hydrochloride salt] | – | – | 0.68 | – | – | – | – | – | 2 | –
11 | Cc1c(N2CC[C@@H]([C@H](C)N)C2)c(F)cc2cc(N)c(=O)n(C3CC3)c12 [Example 8, 3-amino-7-((R)-3-((S)-1-aminoethyl)pyrrolidin-1-yl)-1-cyclopropyl-6-fluoro-8-methylquinolin-2(1H)-one hydrochloride salt] | – | – | 1.68 | – | – | – | – | – | – | –
12 | Cc1c(N2CCC(CN)C2)c(F)cc2c(CN(C)C)cc(=O)n(C3CC3)c12.O=C(O)C(F)(F)F (stereo not drawn) [Example 89, 7-(3-(aminomethyl)pyrrolidin-1-yl)-1-cyclopropyl-4-((dimethylamino)methyl)-6-fluoro-8-methylquinolin-2(1H)-one TFA salt] | 32 | – | – | 16 | – | 1 | 4 | 0.5 | 4 | > 32
13 | Cc1c(N2CC[C@@H]([C@H](C)N)C2)c(F)cc2c(OCCNS(C)(=O)=O)cc(=O)n(C3CC3)c12 [Example 66, N-(2-((7-((R)-3-((S)-1-aminoethyl)pyrrolidin-1-yl)-1-cyclopropyl-6-fluoro-8-methyl-2-oxo-1,2-dihydroquinolin-4-yl)oxy)ethyl)methanesulfonamide] | > 32 | – | – | > 32 | > 32 | 4 (≈ 8.57 µM) | 32 (≈ 68.6 µM) | 2 (≈ 4.29 µM) | 4 (≈ 8.57 µM) | –
14 | Cc1c(N2CC[C@@H]([C@H](C)N)C2)c(F)cc2c(/C=C/C(=O)O)cc(=O)n(C3CC3)c12 [Example 22, (E)-3-(7-((R)-3-((S)-1-aminoethyl)pyrrolidin-1-yl)-1-cyclopropyl-6-fluoro-8-methyl-2-oxo-1,2-dihydroquinolin-4-yl)acrylic acid] | > 32 | – | – | > 32 | > 32 | 8 (≈ 20 µM) | 32 (≈ 80.1 µM) | 8 (≈ 20 µM) | 8 (≈ 20 µM) | –
15 | CNCc1cc(=O)n(C2CC2)c2c(C)c(N3CCC(CN)C3)c(F)cc12.O=C(O)C(F)(F)F (stereo not drawn) [Example 88, 7-(3-(aminomethyl)pyrrolidin-1-yl)-1-cyclopropyl-6-fluoro-8-methyl-4-((methylamino)methyl)quinolin-2(1H)-one TFA salt] | 4 | – | – | 2 | – | 1 | 4 | 0.25 | 2 | 16
